# Like-named read-outs stand apart in the source and are kept apart here.
# Columns and labels:
# [1] = tested on: normal CRL2120 human skin fibroblasts; experiment: Neutral red (NR) uptake cytotoxicity assay, normal fibroblasts; type: cell-based; conditions: Skin fibroblast, 72 h incubation
# Description: (§1) DMSO at 0.1% was used as solvent control.
# [2] = Neutral red (NR) uptake cytotoxicity assay, Caco-2; conditions: human, Caco-2
# Description: (§3) Four human carcinoma cell lines and one normal cell line were used. They were: DLD-1 and Caco-2 colorectal adenocarcinoma cell lines, HepG2 hepatocarcinoma cells, MCF-7 breast adenocarcinoma cells and the normal CRL2120 human skin fibroblasts. Caco-2 cells (from the ŞAP Institute of Ankara,Turkey andMCF-7 cells (from ATCC) provided by Prof. Dr. Tansu Koparal (Anadolu University, Eskisehir, Turkey),HepG2, DLD-1 and CRL2120 cells were obtained from American Type Culture Collection (ATCC); DMEM medium (Sigma-aldrich, Munich, Germany) was used to maintain cells as a monolayer and was supplemented with 10% fetal calf serum and 1% penicillin (100 U/mL)-streptomycin (100 μg/mL) in a humidified 5% CO2 atmosphere at 37 °C.
# (§4) Dimethylsufoxide (DMSO) at less than 0.1% final concentration was used to dilute the tested samples. DMSO at 0.1% was used as solvent control. The incubation time was 72 h incubation in humidified 5% CO2 atmosphere at 37 °C, followed by NR coloration as previously described [23, 24]. ELx 808 Ultra Microplate Reader (Biotek) equipped with a 540 nm filter was used to measure the absorbance. Each experiment was performed at least three times, with three replicates each. The viability was evaluated based on a comparison with untreated cells. The IC50 values represented the sample’s concentrations required to inhibit 50% of cell proliferation and were calculated from a calibration curve by linear regression using Microsoft Excel [26] as follows: for each sample, the cell growth percentages at the different concentrations were used to draw the calibration curve with logarithmic regression obtained by 2 measuring points (one smaller and one larger than 50%) from where the IC50 value was deduced.
# [3] = tested on: Caco-2 colorectal adenocarcinoma cells; experiment: Neutral red (NR) uptake cytotoxicity assay, Caco-2; conditions: read-out: IC50 values, Caco-2
# Description: as §3, §4
# [4] = tested on: HepG2 hepatocarcinoma cells; experiment: Neutral red (NR) uptake cytotoxicity assay, HepG2; type: cell-based, human; conditions: for IC50: Homo sapiens, HepG2, NR assay, 72 h incubation; for selectivity index, HepG2: IC50 in CRL2120 normal fibroblasts divided by IC50 in HepG2
# Description: as §1
# [5] = tested on: MCF-7 breast adenocarcinoma cells; experiment: Neutral red (NR) uptake cytotoxicity assay, MCF7; type: cell-based, human; conditions: for IC50: Homo sapiens, MCF7, NR assay, 72 h incubation; for selectivity index, MCF7: IC50 in CRL2120 normal fibroblasts divided by IC50 in MCF7
# Description: as §1
# [6] = tested on: DLD-1 colorectal adenocarcinoma cells; experiment: Neutral red (NR) uptake cytotoxicity assay, DLD-1; type: cell-based, human; conditions: for IC50: Homo sapiens, DLD-1, NR assay, 72 h incubation; for selectivity index, DLD-1: IC50 in CRL2120 normal fibroblasts divided by IC50 in DLD-1
# Description: as §1
# caspase 9 in MCF-7 cells = experiment: Caspase-Glo 9 assay; type: cell-based, human; conditions: MCF-7, 6 h, optimal activity generally at IC50, vs untreated control
# Description: (§2) The BioTek Synergy™ HT multi-detection microplate reader was used to measure the luminescence and Caspase activity was expressed as percentage of the untreated control.
# MCF-7 cells [7] = experiment: Cell cycle analysis and detection of apoptosis by flow cytometry; type: cell-based, human; conditions: for percentages of cells in sub-G0/G1 phase: MCF-7, 2 × IC50 (as printed in text); for percentages of cells in sub-G0/G1 phase / Growth (percentage of control) Sub-G0; percentage of cells in sub-G0/G1 phase: non-treated cells 3.1%; for Growth (percentage of control) Sub-G0; percentage of cells in sub-G0/G1 phase: MCF-7, 72 h, ¼ x IC50; for cell cycle arrest (phase): MCF-7 cells, 72 h
# Experimental: Cells were tested in 6-well plates (3 mL, 1 × 10^5 cells/mL) and the incubation time was 72 h in humidified 5% CO2 atmosphere at 37 °C. […] Untreated cells (control) were used for comparison with treated cells. The BD FACS Aria I Cell Sorter Flow Cytometer (Becton-Dickinson, Germany) was then used for cell cycle analysis. For each sample, 10^4 cells were counted. For PI excitation, an argon-ion laser emitting at 488 nm was used. Cytographs were analyzed using BD FACSDiva™ Flow Cytometry Software Version 6.1.2 (Becton-Dickinson).
# MCF-7 cells [8] = experiment: Reactive oxygen species production (H2DCFH-DA); type: cell-based, human; conditions: MCF-7, 24 h, at IC50, compared to non-treated cells
# Experimental: Cells were tested in 6-well plates (3 mL, 1 × 10^5 cells/mL) and the incubation time was 24 h in humidified 5% CO2 atmosphere at 37 °C. The tested concentrations were ¼ × IC50, ½ × IC50 and IC50. Untreated cells (control) were used for comparison with treated cells. The fluorescence was measured using SpectraMax® M5 Microplate Reader (Molecular Devices, Biberach, Germany) at 480/530 nm. All experiments were performed at least in triplicates.
# MCF-7 cells [9] = experiment: Integrity of mitochondrial membrane potential (JC-1 staining, flow cytometry); type: cell-based, human; conditions: MCF-7, 72 h, IC50; control 6.0%
# Experimental: Cells were tested in 6-well plates (3 mL, 1 × 10^5 cells/mL) and the incubation time was 72 h in humidified 5% CO2 atmosphere at 37 °C. The tested concentrations were ¼ × IC50, ½ × IC50 and IC50. Untreated cells (control) were used for comparison with treated cells. JC-1 staining was performed according to the manufacturer’s protocol as reported previously. Cells were then measured in a BD FACS Aria I Cell Sorter Flow Cytometer (Becton-Dickinson, Germany). The JC-1 signal was measured at an excitation wavelength of 561 nm (150 mW) and detected using a 586/15 nm band-pass filter. The signal was analyzed at an excitation wavelength of 640 nm (40 mW) and detected using a 730/45 nm bandpass filter. Cytographs were analyzed using BD FACSDiva™ Flow Cytometry Software Version 6.1.2 (Becton-Dickinson). All experiments were performed at least in triplicates.
# [10] = tested on: four tested cancer cell lines (MCF-7, DLD-1, Caco-2, HepG2); experiment: Neutral red (NR) uptake cytotoxicity assay, summary over the four tested cancer cell lines; type: cell-based; conditions: Homo sapiens
# Description: as §1
# [11] = tested on: caspases 3/7 in MCF-7 cells; experiment: Caspase-Glo 3/7 assay; type: cell-based, human; conditions: MCF-7, 6 h, optimal activity generally at IC50, vs untreated control
# Description: as §2
# in vitro = conditions: human, Caco-2
# Description: as §3, §4
# [12] = all 4/4 tested cancer cell lines, read-out: IC50 values against the four tested cancer cell lines
SMILES,IC50 [1] [µM],selectivity ratio at 72 h [2],"IC50 ([3]; Homo sapiens, Caco-2, 72 h) [µM]",IC50 [4] [µM],"selectivity index, HepG2 [4]",IC50 [5] [µM],IC50 [6] [µM],increase of caspase 9 activity (caspase 9 in MCF-7 cells) [fold],percentages of cells in sub-G0/G1 phase (MCF-7 cells [7]) [%],Growth (percentage of control) Sub-G0; percentage of cells in sub-G0/G1 phase (MCF-7 cells [7]) [%],increase in ROS levels (MCF-7 cells [8]) [fold],"IC50 ([3]; NR assay, 72 h incubation) [µM]",P2: cells with altered MMP (MMP depletion) (MCF-7 cells [9]),cell cycle arrest (phase) (MCF-7 cells [7]),"IC50 [10, 12] [µM]",increase of caspases 3/7 activity [11] [fold],"selectivity index, MCF7 [5]","selectivity index, DLD-1 [6]","IC50 ([10]; 3/4 tested cancer cell lines, read-out: IC50 values in 3/4 tested cell lines) [µM]",selectivity ratio at 72 h (in vitro)
"CC1(C)C=Cc2c(cc(O)c3c(=O)c4cc5c(c(O)c4oc23)OC(C)(C)C=C5)O1 [Compound 14, rheediaxanthone A]",80.3 ± 5.42,35.5,3.15 ± 0.01,14.6 ± 0.93,5.50,> 102,> 102,–,–,–,–,–,–,–,–,–,–,–,–,–
"COc1cccc2c1C(=O)c1c(O)c3c(c(O)c1C2=O)C[C@@](O)(C(=O)CO)C[C@@H]3O[C@H]1C[C@H](N)[C@H](O)[C@H](C)O1 [Doxorubicin, doxorubicin, reference compound]",0.59 ± 0.01,–,–,0.18 ± 0.03,–,0.35 ± 0.05,0.37 ± 0.05,1.3,60,27.6,2.40,0.72 ± 0.13,up to 26.0%,–,–,–,–,–,–,–
"COc1cc2c(c(O)c1CC=C(C)C)C(=O)[C@H](O)[C@@H](c1ccc(O)cc1)O2 [Compound 9, thonningiol]",45.5 ± 4.17,8.6,5.28 ± 0.06,3.88 ± 0.04,11.72,0.36 ± 0.01,5.65 ± 0.03,2.67,28.3,11.6,4.46,–,11.2%,Go/G1,< 10,3.97,124.59,8.05,–,–
"COc1cc(O)c2c(=O)c(O[C@H]3OC(C)[C@@H](O)C(O)[C@H]3O)c(-c3ccc(O)c(O)c3)oc2c1 (stereo partly drawn) [Compound 7, rhamnitrin or 7-O-methylquercetin 3-O-rhamnoside]",52.3,–,> 86.6,> 86.6,–,60.9 ± 5.39,> 86.6,–,–,–,–,–,–,–,–,–,0.86,–,–,–
"CC1(C)C=Cc2c(O)ccc(C3COc4cc(O)cc(O)c4C3=O)c2O1 (stereo not drawn) [Compound 10, glyasperin F]",> 113,> 6.42,17.6 ± 1.39,16.9 ± 1.2,> 6.69,11.1 ± 0.88,20.9 ± 1.64,–,–,–,–,–,–,–,< 85,–,> 10.14,> 5.41,–,–
"COc1cc(O)c2c(=O)c(O[C@H]3OC(C)[C@@H](O)C(O)[C@H]3O)c(-c3cc(O)c(O)c(O)c3)oc2c1 (stereo partly drawn) [Compound 8, europetin 3-O-rhamnoside or 7-O-methylmyricetin 3-O-rhamnoside]",> 83.7,–,> 83.7,> 83.7,–,16.7 ± 1.81,> 83.7,–,–,–,–,–,–,–,–,–,> 5.00,–,–,–
"CO[C@H]1[C@H](O)[C@@H](O)[C@@H](O)[C@@H](O)[C@@H]1O [Compound 6, 5-O-methyl-myo-inositol or sequoyitol]",> 206,–,> 206,45.1 ± 3.42,> 4.57,167 ± 12,> 206,–,–,–,–,–,–,–,–,–,> 1.24,–,–,–
"C=CC(C)(C)c1cc2c(cc1O)OCC1c3ccc(OC)cc3OC21 (stereo not drawn) [Compound 13, seputhecarpan D]",> 118,> 11.3,10.5 ± 0.48,67.7 ± 5.18,–,9.78 ± 0.55,10.8 ± 1.11,3.47,31.1,7.6,3.78,–,12.9%,Go/G1,–,4.66,> 12.10,> 10.97,< 10,–
"CCC(/C=C/[C@@H](C)C1CCC2C3=CCC4C[C@@H](O)CCC4(C)C3CCC21C)C(C)C (stereo partly drawn) [Compound 1, β-spinasterol]",> 97.1,> 1.39,69.8 ± 5.12,> 97.1,–,> 97.1,> 97.1,–,–,–,–,–,–,–,–,–,–,–,–,–
"C=C(C)[C@@H]1CC[C@]2(C)CC[C@]3(C)[C@H](CC[C@@H]4[C@@]5(C)CC[C@H](OC(C)=O)C(C)(C)[C@@H]5CC[C@]43C)[C@@H]12 [Compound 5, lupeol acetate]",> 85.5,–,> 85.5,> 85.5,–,10.7 ± 0.75,> 85.5,–,–,–,–,–,–,–,–,–,> 8.00,–,–,–
"C=C(CO)C1Cc2cc3c(cc2O1)OCC1c2ccc(O)cc2OC31 (stereo not drawn) [Compound 11, seputhecarpan B]",> 118,> 1.4,84.4 ± 6.32,61.9 ± 4.2,> 1.91,11.9 ± 0.94,57.9 ± 3.89,–,–,–,–,–,–,–,< 85,–,> 9.93,> 2.04,–,–
"CC(=O)O[C@H]1CC[C@]2(C)[C@H]3CC=C4[C@@H]5CC(C)(C)CC[C@]5(C)CC[C@@]4(C)[C@]3(C)CC[C@H]2C1(C)C [Compound 4, β-amyrin acetate]",> 85.5,–,> 85.5,> 85.5,–,> 85.5,> 85.5,–,–,–,–,–,–,–,–,–,–,–,–,–
"C=C(CO)C1Cc2cc3c(cc2O1)OCC1c2ccc(OC)cc2OC31 (stereo not drawn) [Compound 12, seputhecarpan C]",> 114,> 1.69,67.3 ± 3.98,76.7 ± 7.24,> 1.48,13.3 ± 0.67,37.8 ± 1.76,–,–,–,–,–,–,–,< 85,–,> 8.55,> 3.00,–,–
"C=C(C)[C@@H]1CC[C@@]2(C)C1C1CCC3[C@@]4(C)CC[C@H](O)C(C)(C)C4CC[C@@]3(C)[C@]1(C)C[C@@H]2O (stereo partly drawn) [Compound 3, 16β-hydroxylupeol]",52.6 ± 5.11,–,20.8 ± 1.53,35.6 ± 3.29,1.47,9.12 ± 1.02,15.4 ± 0.96,–,–,–,–,–,–,–,< 85,–,5.76,3.41,–,2.53
"C[C@H]1C(=O)CC[C@@H]2[C@]1(C)CC[C@H]1[C@@]2(C)CC[C@@]2(C)[C@@H]3CC(C)(C)CC[C@]3(C)CC[C@]12C [Compound 2, friedelanone]",> 93.9,–,> 93.9,> 93.9,–,70.8 ± 4.95,> 93.9,–,–,–,–,–,–,–,–,–,> 1.33,–,–,–

# — PMC5789597, “Cytotoxicity of seputhecarpan D, thonningiol and 12 other phytochemicals from African flora towards human carcinoma cells” (BMC Complementary and Alternative Medicine, 2018)
